How the values were obtained:
[1] = tested on: endogenous somatostatin receptors expressed by GH4 cells; experiment: cAMP assay in GH4 cells stimulated with VIP or TRH; type: cell-based
Protocol: To investigate whether cortistatin modulates somatostatin receptor activation, the concentration of cyclic AMP (cAMP) was determined following stimulation of GH4 cells with VIP or TRH in the presence or absence of either cortistatin or somatostatin.
For the cAMP assays, GH4 cells were grown under the same conditions as for the binding assays. The cells were washed with MEM without serum, but containing leupeptin, aprotinin and 1 mM 3-isobutyl-methyl-xantine (IBMX). The cells were pretreated with somatostatin-14 and cortistatin-14 for 15 minutes before VIP at 10^−6 M was added or TRH at 10^−7 M. To each well, ^3H cyclic AMP was added before the content was removed, to calculate recovery. For cAMP measurements, a RIA kit (Amersham, Arlington Heights, Ill.) was used according to the instructions of the manufacturer. Each time point represents 2-4 replicates and the experiments were carried out twice.

[2] = tested on: somatostatin receptors on GH4 pituitary cells; experiment: Displacement of 125I-somatostatin-14 bound to GH4 pituitary cells; type: binding; conditions: for Kd: GH4 pituitary cells, four independent experiments, read-out: estimated Kd, displacement of 125I-somatostatin-14 binding; for displacement of 125I-somatostatin: GH4 cells, control peptides
Protocol: To determine the binding specificity of cortistatin and in view of its similarity to somatostatin, assays to assess the binding of chemically synthesized, linear cortistatin-14 peptide prepared in Example 2 to somatostatin receptors on GH4 pituitary cells were performed.
GH4 cells, obtained from Dr. Kaare M. Gautvik (University of Oslo) or ATCC, were grown in MEM medium with 12% fetal calf serum in 6-well plates at 10^6 cells/ml. Each well then received 10^6 cpm/ml of ^125I somatostatin-14 (NEN, DuPont, Wilmington, Del.) alone or with increasing concentrations of somatostatin-14 peptide (Sigma) or cortistatin-14 peptide (95%, purified by reverse phase HPLC ranging from 10^−10 M to 10^−6 M. Aprotinin and leupeptin (Sigma; […]) was included as it reduced non-specific binding to 20% of total bound radioactivity. The binding of ^125I somatostatin in the presence of 10^−7 M somatostatin was considered as unspecific binding as described by Schonbrunn et al., J. Biol. Chem., 235:6473-6483 (1978).

[3] = biological target: somatostatin receptor 1 (SSTR1) (Homo sapiens, UniProt P30872); experiment: Binding studies to cloned somatostatin receptors
Chain of somatostatin receptor 1 (SSTR1) (P30872 whole entry, species assumed, the tested form may be a part): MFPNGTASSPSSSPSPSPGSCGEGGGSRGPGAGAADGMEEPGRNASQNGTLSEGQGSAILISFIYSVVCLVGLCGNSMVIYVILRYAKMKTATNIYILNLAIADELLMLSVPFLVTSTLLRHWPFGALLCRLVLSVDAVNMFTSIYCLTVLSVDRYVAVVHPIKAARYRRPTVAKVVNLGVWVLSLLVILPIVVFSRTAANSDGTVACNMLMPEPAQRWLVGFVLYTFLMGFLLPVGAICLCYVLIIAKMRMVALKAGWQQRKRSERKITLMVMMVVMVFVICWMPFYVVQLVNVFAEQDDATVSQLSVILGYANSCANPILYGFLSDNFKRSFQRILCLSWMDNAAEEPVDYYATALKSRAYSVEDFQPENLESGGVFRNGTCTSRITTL

[4] = tested on: voltage-dependent potassium M current (IM); experiment: Voltage-clamp recording of M current (IM) relaxation in CA1 neurons; type: cell-based, rat; parameters: dose or concentration left out as unconfirmed; conditions: 7 minutes superfusion; CA1 neuron held at −43 mV
Source text: To determine the mechanism of the cortistatin-induced inhibition, we assessed the effect of cortistatin on the M current (IM), a non-inactivating voltage-dependent potassium current seen in hippocampal neurons as described by Halliwell et al., Brain Res., 250:71-92 (1982).
In voltage clamp assays, the IM relaxation was observed by applying hyperpolarizing steps (5 to 25 mV) from a holding potential of −43 to −48 mV.

hippocampal CA1 neurons = experiment: Paired-pulse (PP) responses in CA1 neurons in vivo, iontophoretic application; parameters: species or system rat; conditions: for effect on PP responses (PP inhibition) in CA1: applied alone iontophoretically, ACh 0.9 M, somatostatin 1.5 mM, 80 ms interstimulus interval
Source text: Stimulation intensity was adjusted after drug treatment to achieve control PS amplitudes before performing PP studies.

[5] = tested on: hippocampal CA1 pyramidal cells; experiment: Current-clamp intracellular recording in hippocampal slices; type: cell-based, rat; conditions: for time to maximum steady effect (time-to-peak) after onset of the response: hippocampal slice CA1 neurons, superfusion
Protocol: Somatostatin is known to hyperpolarize central neurons by increasing potassium conductances as described by Inoue et al., J. Physiol., 407:177-198 (1988), including the voltage-dependent potassium M current (see Moore et al., Science, 239:278-280 (1988) and Jacquin et al., Proc. Natl. Acad. Sci., USA, 85:948-952 (1988)). To complete the characterization of the physiological role of cortistatin, assays were performed to determine whether cortistatin had somatostatin-like effects on hippocampal neurons by means of current- and voltage-clamp recordings in the hippocampal slice preparation.
Intracellular recordings were obtained in rat hippocampal slices using sharp glass micropipettes as previously described by Schweitzer et al., J. Neurosci., 13:2033-2049 (1993). Recordings were made from 11 hippocampal CA1 pyramidal cells with an average resting membrane potential of −70 Å 1 mV (mean Å s.e.m.) and action potential of 103 Å 2 mV. Current-clamp recording of a CA1 neuron manually depolarized to −65 mV (resting membrane potential was −70 mV) to elicit action potential firing (upward deflections, truncated) is shown in FIG. 6A.
Superfusion of […] cortistatin-14 peptide (bar above record), prepared as described in Example 3, like somatostatin-14, hyperpolarized these neurons (10 of 11 cells), in association with inhibition of action potential firing, followed by recovery to control levels upon washout of the peptide. Unlike somatostatin, the cortistatin-14-mediated effect developed slowly, reaching a maximum steady effect six to eight minutes after the onset of the response. This contrasted with the time-to-peak of somatostatin′s effect on these neurons under the same experimental conditions that was much shorter (2-3 minutes).

[6] = tested on: sleep-wake cycle of the rat; experiment: Intracerebroventricular administration, EEG and sleep-wake cycle of the rat; type: in vivo
Source text: As cortistatin is expressed in interneurons located in the cerebral cortex and hippocampus, its effects on cortical measures of neuronal excitability was next determined in vivo. Up to 6 nmoles of HPLC-purified synthetic cortistatin-14 peptide prepared in Example 3 were infused into the brain ventricles of rats (n=5) and recorded the electroencephalogram (EEG) for four hours after peptide injection. […] Standard methodologies for chronic electrophysiological preparation and data acquisition were used. Procedures for EEG recordings and PP studies are as described by Prospero-Garcia et al., Pharmacol. Biochem. Behav., 49:413 (1994) and Steffensen et al., Brain Res., 652:149 (1994).
FIGS. 7A-1, 7A-2, 7A-3 and 7A-4 show the effects of the intracerebroventricular administration of cortistatin on the sleep-wake cycle of the rat. FIGS. 7A-1, 7A-2, 7A-3 and 7A-4 respectively illustrate wakefulness, slow-wave sleep 1, slow-wave sleep 2 and REM sleep. The effects of the sleep cycle were assessed with cortistatin-14 dosages at 100 ng, 500 ng, […] as plotted from left to right in the bar graphs as shown against saline control. Asterisks represent significance levels of P<0.05; ANOVA.

CA1 pyramidal neurons = experiment: Population spike amplitudes in CA1 in vivo, iontophoretic application, anesthetized rats; parameters: species or system rat; conditions: microiontophoretic application, 1 mg/ml in saline; half-maximal and maximal stimulation; P<0.05
Protocol: The inhibitory effects of cortistatin on the excitability of CA1 pyramidal neurons as viewed by population spike (PS) amplitudes was paralleled in vivo in the anesthetized preparation. For the in vivo studies, male Sprague-Dawley rats were anesthetized with halothane (0.9-1.1%). The commisural pathway was stimulated and elicited field potentials in the CA1 region essentially as described by Steffensen et al., Brain Res., 538:46-53 (1991). Cortistatin (1 mg/ml) was dissolved in saline and administered iontophoretically through one barrel of a multibarreled micropipette. […] Asterisks represent significance levels at P<0.05. The data was compiled with software (LabView Instruments, National Instruments, Austin, Tex.) as described by Steffensen et al., Brain Res., 538:46-53 (1991).
Stimulation of the monosynaptic afferent input to the CA1 region evoked a characteristic population spike (PS) that represents the synchronous firing of pyramidal cells, superimposed on a field synaptic potential waveform as described by Anderson et al., Exp. Brain Res., 13:208-221 (1971).

[7] = tested on: cerebral cortex (visual cortex) local EEG; experiment: Local EEG activity in visual cortex of anesthetized rats, microiontophoretic application; type: in vivo, rat
Protocol: To investigate further whether cortistatin also interacts with cholinergic systems that regulate cortical function, the effects of cortistatin on ACh-induced desynchronization of EEG in the cerebral cortex of anesthetized rats was determined. Thus, ACh and cortistatin was microiontophoretically (100-250 nA) applied on local EEG activity recorded in the visual cortex. For the data shown in FIG. 7G, the results from the experimental groups were derived from averaged EEG spectral activity determinations and expressed as means Å s.e.m. (Asterisk represents significance levels P<0.05 from baseline; two asterisks represent significance levels P<0.05 from ACh; ANOVA).

SSTR 2-5 = experiment: Binding studies to cloned somatostatin receptors; conditions: relative to somatostatin
[8] = peptide alone at 10^−6 M, compared to control

In the case of “14-residue peptide of SEQ ID NO 8 (PCKNFFWKTFSSCK), same sequence for rat and mouse, chemically synthesized [cortistatin-14]”, the “intracellular concentration of cAMP” value [1, 8] is reported as “no effect”, the Kd [2] is reported as 5 nM and the “affinity for somatostatin receptor 1 (SSTR1)” value [3] is reported as “comparable to somatostatin”. The “increase of the amplitude of the IM relaxation” value [4] was 60%, the “effect on PP responses (PP inhibition) in CA1” value (hippocampal CA1 neurons) was “no significant effects” and the “effect on the ACh-induced reduction of PP inhibition” value (hippocampal CA1 neurons; simultaneous iontophoretic application with ACh, P<0.05) was “completely antagonized”. For the same compound, the “time to maximum steady effect (time-to-peak) after onset of the response” value [5] was “six to eight”, the “effect on membrane potential of CA1 neurons” value ([5]; superfusion of 1 M, 10 of 11 cells, inhibition of action potential firing, recovery on washout) was “hyperpolarized” and the “EEG cortical slow waves (1-4 Hz)” value ([6]; infused into brain ventricles of rats) was “dramatic increase”. For the same compound, the spontaneous behavior ([6]; infused into brain ventricles of rats, compared to saline-injected rats) was “clear hypoactive behavior”, the “share of the four hour recording time in slow-wave sleep” value ([6]; intracerebroventricular, 40% in saline-treated control animals) was “up to 75%” and the “paradoxical (REM) sleep” value ([6]; intracerebroventricular, highest dose) was “significant reduction”. The “population spike (PS) amplitudes” value (CA1 pyramidal neurons) was “significantly decreased”, the “local EEG (averaged EEG power spectra)” value ([7]; applied alone, 100-250 nA, visual cortex, anesthetized rats) was “not different from baseline” and the “effect of ACh on local EEG (increase in fast frequency activity)” value ([7]; simultaneous electrophoretic application with ACh) was “effectively prevented”. For the same compound, the “affinity for SSTR 2-5” value (SSTR 2-5) was “far lesser affinity”.
`C[C@H](N)C(=O)NCC(=O)N[C@H]1CSSC[C@@H](C(=O)O)NC(=O)[C@H](CO)NC(=O)[C@H]([C@@H](C)O)NC(=O)[C@H](Cc2ccccc2)NC(=O)[C@H]([C@@H](C)O)NC(=O)[C@H](CCCCN)NC(=O)[C@H](Cc2c[nH]c3ccccc23)NC(=O)[C@H](Cc2ccccc2)NC(=O)[C@H](Cc2ccccc2)NC(=O)[C@H](CC(N)=O)NC(=O)[C@H](CCCCN)NC1=O` [somatostatin-14, reference compound] was tested, and the “intracellular concentration of cAMP” value [1, 8] was “no effect”, the Kd [2] was 5 nM and the “effect on PP responses (PP inhibition) in CA1” value (hippocampal CA1 neurons) was “markedly decreased PP inhibition”. The “time to maximum steady effect (time-to-peak) after onset of the response” value [5] was 2 to 3 min.
“thryoid releasing hormone (QHP) [TRH, control peptide and cAMP stimulator (Calbiochem)]” was tested, and the “intracellular concentration of cAMP” value ([1]; peptide alone at 10^−7 M) was “increased” and the “displacement of 125I-somatostatin” value [2] was “did not show any displacement”.
In the case of “vasoactive intestinal peptide (HSDAVFTDNYTRLRKQMAVKKYLNSILN) [VIP, control peptide and cAMP stimulator (Bachem)]”, the “intracellular concentration of cAMP” value [1, 8] is reported as “increased” and the “displacement of 125I-somatostatin” value [2] is reported as “did not show any displacement”.

Reference: patent US6814967B2, “Antibodies to cortistatin: neuropeptides, compositions and methods” (The Scripps Research Institute, priority 1996, dated 2004)
